Measured values taken from article PMC6059433, “Discovery of fragments that target key interactions in the signal recognition particle (SRP) as potential leads for a new class of antibiotics” (PLoS ONE, 2018).

Molecular target: T1, FtsY (FtsYNG) (Escherichia coli, UniProt P10121)
T1 construct: NG domain, 196–497 aa
Experiment: SPR (positive control, […] MgCl2 in running buffer); […]-TROSY-HSQC titration
Format: binding

T1 sequence (P10121 196-497): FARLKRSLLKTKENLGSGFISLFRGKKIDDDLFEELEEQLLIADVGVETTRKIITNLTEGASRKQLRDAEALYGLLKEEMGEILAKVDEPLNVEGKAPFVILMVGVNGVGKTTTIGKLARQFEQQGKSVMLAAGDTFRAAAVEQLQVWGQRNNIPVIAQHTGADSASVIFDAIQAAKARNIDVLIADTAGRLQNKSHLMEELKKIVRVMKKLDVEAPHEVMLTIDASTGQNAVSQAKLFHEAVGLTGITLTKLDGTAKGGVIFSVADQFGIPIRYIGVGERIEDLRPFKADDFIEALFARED

Nc1nc2c(ncn2[C@@H]2O[C@H](COP(=O)(O)OP(=O)(O)NP(=O)(O)O)[C@@H](O)[C@H]2O)c(=O)[nH]1 [GMPPNP]
Kd: 280 ± 80 µM
